Measured values reported in patent US20240209011A1, “HETEROAROMATIC PHOSPHONIUM SALTS FOR TREATING CANCER” (FLORATEK PHARMA S.A., priority 2021, published 2024).
pIC50: −log10 of the molar value. Marks after values point to notes of the source that are not given here.

Columns and labels:
[1] = system: K562 CDX; assay: In vivo tumour inhibition of xenograft leukemia model K562; settings: K562 CDX in NOG mice; for Optimal T/C (value): day 17 after tumour transplantation, median tumour volume treated/control; for tumour growth inhibition: i.p. daily, T/C at day 17 after tumour transplantation
Method: In vivo activity against a number of CDX were evaluated in various nude or SCID mice. Tumour cells were inoculated subcutaneous (s.c) into the mice flank. Mice were randomized into groups when tumours were around 100-200 mm^3. A vehicle control group (2.5-4% DMSO, 5% EtOH, 20% PEG200 in saline) was part of each experiment. Treatment was administered intraperitoneally (i.p.) 3 times a week or daily (qd).
Body weight was measured before each treatment and treatments of individual mice was paused, when the body weight loss was >15%. Tumor volumes were measured 2×/week. Mice were individually sacrificed, when the tumor volume reached the volume specified in the laboratory internal SOP.
The tumour inhibition growth was assessed as the optimal T/C, where T represents the median tumour volume of the treated group and C represents the median tumour volume of the control (vehicle) group. Statistical analysis was performed using two way RM ANOVA with p values […] considered statistically significant.
Test compounds were evaluated for the in vivo inhibition activity against the chronic myelogenous leukemia CDX in NOG mice. 1×10^7 cells were injected s.c. into the left flank at day 0. Mice were stratified into groups of 10 mice each with a mean tumor volume of 109±35 mm^3 and the treatment was administered i.p. daily.

[2] = system: esophagus PDX; assay: Activity against esophagus PDX; type: cell-based; settings: esophagus PDX growth; summary of Table 10
Method: (§1) PDX-derived cell cultures were obtained from tumors explanted from mice and isolated by mechanical and enzymatic dissociation. […] Cells were harvested and seeded in 96-wells plates at a density of 1.25 to 5×10^3 cells/well for cytotoxicity assays. Cells were incubated 48 h at 37° C. prior to addition of test molecules and vehicle (DMSO, 0.1%) at desired final concentrations. Cell viability was assessed before drugs' addition (To) and 5 days after test molecules addition by measuring ATP cell content using CellTiter-Glo® Luminescent Cell Viability Assay (Promega) according to the manufacturer's instructions. Luciferase activity was measured on a luminometer (PerkinElmer® EnVision™). Each concentration of compounds was tested in triplicate.
(§2) Viability was calculated as a percentage of ATP value compared to vehicle treated controls.
(§3) For PDX primary cell cultures, the tumour tissue was washed with PBS containing antibiotic-antimycotic and non-tumour tissue and necrotic tumour tissues were separated. The tumour tissue was transferred to a new dish and cut into 1-2 mm^3 fragments, resuspended in RPMI-1640 medium and centrifuged at 1,200 rpm for 6 min at room temperature. The pelleted material was resuspended with 15 mL of Tumour Cell Digestion Solution and incubated at 37° C. for 1 hour with agitation. Following further addition of media, centrifugation and passage through a […] cell strainer, the homogenous cell mixture was layered onto 15 mL of Ficoll-Paque PLUS in a 50 mL conical tube and centrifuged for 15 min at 1,600 rpm. The interface cells were collected, washed with media, separated by centrifugation at 1,200 rpm. The cell pellet was resuspended in serum free media supplemented with growth factors. 10,000 cells/wells were plated in a 96 well plate and incubated at 37° C., 5% CO2, 95% air and 100% relative humidity overnight. The cytotoxicity assay was conducted as above. IC50 values represent absolute IC50.

[3] = system: LU-01-0025; assay: PDX-derived cell culture cytotoxicity (CellTiter-Glo); type: cell-based; settings: 120 h; lung PDX LU-01-0025; absolute IC50; 5 days
Method: as §1, §2, §3

[4] = system: HN-13-0020; assay: as above; type: cell-based; settings: 120 h; head and neck PDX HN-13-0020; absolute IC50; 5 days
Method: as §1, §2, §3

[5] = system: ST-02-0322; assay: as above; type: cell-based; settings: 120 h; stomach PDX ST-02-0322; absolute IC50; 5 days
Method: as §1, §2, §3

[6] = system: EN-11-0101; assay: as above; type: cell-based; settings: 120 h; endometrial PDX EN-11-0101; absolute IC50; 5 days
Method: as §1, §2, §3

[7] = system: ST-02-0007; assay: as above; type: cell-based; settings: 120 h; stomach PDX ST-02-0007; absolute IC50; 5 days
Method: as §1, §2, §3

[8] = system: LU-01-0010; assay: as above; type: cell-based; settings: 120 h; lung PDX LU-01-0010; absolute IC50; 5 days
Method: as §1, §2, §3

[9] = system: ME-21-0028; assay: as above; type: cell-based; settings: 120 h; skin melanoma PDX ME-21-0028; absolute IC50; 5 days
Method: as §1, §2, §3

[10] = system: ES-06-0122; assay: as above; type: cell-based; settings: 120 h; esophagus PDX ES-06-0122; absolute IC50; 5 days
Method: as §1, §2, §3

[11] = system: KI-12-0062; assay: as above; type: cell-based; settings: 120 h; kidney PDX KI-12-0062; absolute IC50; 5 days
Method: as §1, §2, §3

[12] = system: LU-01-0004; assay: as above; type: cell-based; settings: 120 h; lung PDX LU-01-0004; absolute IC50; 5 days
Method: as §1, §2, §3

[13] = system: ES-06-0002; assay: as above; type: cell-based; settings: 120 h; esophagus PDX ES-06-0002; absolute IC50; 5 days
Method: as §1, §2, §3

| Weight loss (%) ([1]; 10 mg/kg/inj i.p. qd) | Weight loss (%) ([1]; 5 mg/kg/inj i.p. qd) | Compound | Optimal T/C (value) ([1]; 10 mg/kg/inj i.p. qd) | tumour growth inhibition [1] | pIC50 [2] | pIC50 [3] | pIC50 [4] | pIC50 [5] | pIC50 [6] | pIC50 [7] | pIC50 [8] | pIC50 [9] | pIC50 [10] | pIC50 [11] | pIC50 [12] | pIC50 [13] | Optimal T/C (value) ([1]; 5 mg/kg/inj i.p. qd) |
| --- | --- | --- | --- | --- | --- | --- | --- | --- | --- | --- | --- | --- | --- | --- | --- | --- | --- |
| 8 |  | O=c1cc(-c2ccc(CCCC[P+](c3ccccc3)(c3ccccc3)c3ccccc3)cc2)oc2c(O)c(O)ccc12 [SND118, 4-[4-(7,8-dihydroxy-4-oxo-chromen-2-yl)phenyl]butyltriphenyl-phosphonium bromide] | 58*** | significantly inhibited tumour growth |  |  |  |  |  |  |  |  |  |  |  |  |  |
|  |  | O=c1cc(-c2ccc(CCCC[P+](c3ccccc3)(c3ccccc3)c3ccccc3)cc2)oc2c3c(ccc12)OCO3.[Br-] [SND123, 4-[4-(6-oxo-[1,3]dioxolo[4,5-h]chromen-8-yl)phenyl]butyl-triphenylphosphonium bromide] |  |  | > 4.70 | 5.62 | 5.82 | 5.28 | 5.74 | 5.82 | 6.10 | 6.10 | 5.35 | 5.52 | 5.52 | 5.54 |  |
|  |  | CCNC(=O)Oc1ccc2c(=O)cc(-c3ccc(CCCC[P+](c4ccccc4)(c4ccccc4)c4ccccc4)cc3)oc2c1OC(=O)NCC.[Br-] [SND124, 4-[4-[7,8-Bis(ethylcarbamoyloxy)-4-oxo-chromen-2-yl]phenyl]-butyltriphenylphosphonium bromide] |  |  | > 4.70 | 5.38 | 5.70 | 4.97 | 5.02 | 4.99 | 5.15 | 5.11 | 5.07 | 5.07 | 5.15 | 5.25 |  |
|  |  | CCNC(=O)Oc1ccc2c(=O)cc(-c3ccc(CCCC[P+](c4ccccc4)(c4ccccc4)c4ccccc4)cc3)oc2c1O.[Br-] [SND126A, 4-[4-[7-(Ethylcarbamoyloxy)-8-hydroxy-4-oxo-chromen-2-yl]phenyl]butyltriphenylphosphonium bromide] |  |  | > 4.70 | 5.28 | 5.57 | 5.01 | 4.99 | 4.97 | 5.12 | 5.10 | 5.08 | 4.96 | 5.08 | 5.03 |  |
|  | 5 | COc1c(O)ccc2c(=O)cc(-c3ccc(CCCC[P+](c4ccccc4)(c4ccccc4)c4ccccc4)cc3)oc12.[Br-] [SND140, (4-(4-(7-hydroxy-8-methoxy-4-oxo-4H-chromen-2-yl)phenyl)butyl)triphenylphosphonium bromide] |  | significantly inhibited tumour growth | > 4.70 | 4.98 | 5.04 | 4.88 | 5.21 | 4.92 | 5.52 | 5.96 | 4.87 | 4.77 | 4.93 | 5.02 | 69* |
